This note sets out measurements from patent US9636409B2, “Enzyme and receptor modulation using covalent conjugates of alpha,alpha-disubstituted glycine esters” (GlaxoSmithKline Intellectual Property Development Limited, priority 2008, dated 2017).

One series deals with T1, p38 MAP Kinase α (Homo sapiens, UniProt Q16539).
T1 construct: purchased Upstate (Dundee UK)
Kind of series: p38 MAP Kinase enzyme assay. The class given is biochemical. The settings on record: Table 1 (biology); compound as such, Ester for Example 1; read-out: Inhibition of P38 (IC50 nM). Here is the method: p38 MAP Kinase Enzyme Assay
The ability of compounds to inhibit p38 MAPα Kinase activity was measured in an assay performed by Upstate (Dundee UK). In a final reaction volume of 25 μL, p38 MAP Kinase α (5-10 mU) is incubated with 25 mM Tris pH 7.5, 0.02 mM EGTA, 0.33 mg/mL myelin basic protein, 10 mM MgAcetate and [γ-^33P-ATP](specific activity approx. 500 cpm/pmol, concentration as required). The reaction is initiated by the addition of the MgATP mix. After incubation for 40 minutes at room temperature, the reaction is stopped by the addition of 5 μL of a 3% phosphoric acid solution. 10 μL of the reaction is then spotted onto a P30 filtermat and washed three times for 5 minutes in 75 mM phosphoric acid and once in methanol prior to drying and scintillation counting.
Duplicate data points are generated from a 1/3 log dilution series of a stock solution in DMSO. Nine dilutions steps are made from a top concentration of […], and a ‘no compound’ blank is included. The standard radiometric filter-binding assay is performed at an ATP concentration at, or close to, the Km. Data from scintillation counts are collected and subjected to free-fit analysis by Prism software. From the curve generated, the concentration giving 50% inhibition is determined and reported.

Series [1] concerns phosphorylation of MAPKAP-2 in HUT 78 cells. Briefly: p38 MAP Kinase cellular assay: inhibition of phosphorylation of MAPKAP2 in HUT 78 cells. To be noted: Table 2. The series is classed as cell-based. Here is the method: p38 MAP Kinase Cellular Assay: Inhibition of Phosphorylation of MAPKAP2
U937 or HUT78 cells were plated in RPMI 1640, and were incubated at 37° C., 5% CO2 for 18 hours. 10 mM stocks of compounds were diluted media/0.1% DMSO to give a log or semi-log dilution series. The wells for ‘no treatment’ and ‘anisomycin’ were treated with 0.1% DMSO only. The cells were incubated at 37° C., 5% CO2 for a further 4 hours. Anisomycin was added to all wells except ‘no treatment’ at a final concentration of 10 μM. The cells were incubated at 37° C., 5% CO2 for 30 minutes before harvest. Plates were stood on ice whilst harvesting, and all following steps were carried out at 4° C. The cells were pelleted at 1000 rpm for 10 minutes at 4° C., the media aspirated, and the pellet washed with cold PBS. The pellets were lysed in 120 μl of SDS lysis buffer (62.5 mM Tris, pH 6.8, 2% SDS, 10% glycerol, 50 mM DTT, with protease inhibitors and phosphatase inhibitors added according to the manufacturers' recommendations). After 30 minutes on ice, the samples were sonicated for 5 seconds before centrifugation at 13,000 rpm 4° C. for 10 minutes to remove cell debris. 10 μl of the resulting gel samples were loaded per lane on NOVEX 4-12% Bis-Tris MOPS gels. Membranes from western transfer of gels were blotted with anti-phospho MAPKAP2, anti-phospho HSP27 and anti GAPDH according to the manufacturers' Instructions. Signal was visualised using HRP-Hnked anti-rabbit or anti-mouse antibodies, ECL reagent and ECL film. IC50 values for the various compounds were visualised from the resulting photographic images, using both band-shift and signal intensity.

Another series relates to U937 cells. Kind of series: Cell accumulation assay in U937 cells. The settings on record: U937 versus HUT 78; result in words. The series is classed as in vitro ADME. Here is the method:
Cells (8×10^4/mL) were incubated at 37° C. in culture medium containing 6 μM compound in a 5% (v/v) CO2-humidified atmosphere. Incubations were terminated after 6 h by centrifugation of 25 mL aliquots of the cell suspension at 300 g for 5 minutes at 4° C. 0.2 mL samples of the culture media supernatants were added to 4 volumes of acetonitrile (Sigma-Aldrich). After decanting the supernatant, the residual cell pellet (2×10^6 cells) was extracted into 1 mL of acetonitrile. Samples were then analysed for the ester and acid metabolite at room temperature by LC/MS/MS (Sciex API3000). Chromatography was based on a MeCN (75×21 mm) column with a 5-95% (v/v) acetonitrile, 0.1% (v/v) formic acid mobile phase. For the zero time samples, the cell suspension was chilled and centrifuged as soon as the ester had been added and then extracted into acetonitrile as described. Levels in cells are expressed as ng/mL.

Structures are written as SMILES.

T1 sequence (Q16539 whole entry): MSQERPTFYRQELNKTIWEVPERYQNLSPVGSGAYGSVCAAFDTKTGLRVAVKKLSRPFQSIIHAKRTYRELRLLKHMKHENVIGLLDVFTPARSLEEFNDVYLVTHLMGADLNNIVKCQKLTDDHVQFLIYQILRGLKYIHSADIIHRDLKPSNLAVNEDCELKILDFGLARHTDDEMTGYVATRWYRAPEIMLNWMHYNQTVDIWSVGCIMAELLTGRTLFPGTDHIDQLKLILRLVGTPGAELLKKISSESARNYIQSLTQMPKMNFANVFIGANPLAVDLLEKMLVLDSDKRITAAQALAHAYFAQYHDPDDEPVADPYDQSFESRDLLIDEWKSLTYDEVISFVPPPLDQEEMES

As for `CC(C)(NCCc1ccc(-n2c(N)c(C(=O)c3ccc(F)cc3F)ccc2=O)cc1)C(=O)OC1CCCC1` [Example 1], the IC50 came to 50 nM at p38 MAP Kinase α and 1000 nM in series [1] (Homo sapiens, HuT78, HUT 78 non-monocyte cell line). Besides, the “Ratio IC50s in HUT 78 to U937 cells” value in series [1] (MAPKAP-2 phosphorylation IC50s) was determined as 100. In the series with U937 cells, the “accumulation in monocytic versus non-monocytic cell line” value is on record as “only accumulates in the monocytic cell line”.
